Results on two substances are retold here after patent US20140228299A1, “PROPHYLACTIC AND THERAPEUTIC AGENT FOR NEUROLOGICAL DISEASES USING LIPOPROTEINS AND PROPHYLACTIC AND THERAPEUTIC METHOD FOR NEUROLOGICAL DISEASES” (National University Corporation Tokyo Medical and Dental …, priority 2011, published 2014).

Assay [1] deals with retinal ganglion cells of GLAST knockout mouse. Description: Intravitreal administration to GLAST knockout mouse (normal-pressure glaucoma model), counting of retinal ganglion cells. It is filed as in vivo. The protocol: This example is an experiment to investigate whether the reconstituted lipoprotein containing apolipoprotein E3 (LP) inhibits apoptosis of the […] of a GLAST knockout mouse as a normal-pressure glaucoma model animal. […] The eyeball was removed at the time of six weeks, followed by fixing with paraffin, staining with hematoxylin-eosin, and counting the retinal glia cells on the retina.
Three-week-old GLAST+/− or GLAST−/− mice were anesthetized by intraperitoneal injection of 50 mg/kg of pentobarbital sodium. […]
The eyeball of a six-week-old mouse was removed and fixed overnight at 4° C. using Super Fix (KY-500, Kurabo. Osaka), followed by removing the cornea and the crystalline lens under a stereoscopic microscope. […] Five sections were selected from each of the continuous sections and the number of the cells within the glia cell layer was counted in a range extending from one end of the retinal section to the other end through the optic nerve. More than 2,000 cells were counted on 10 sections of each retina.

Another assay has as its system retinal ganglion cells. Description: Glutamic acid-induced apoptosis of cultured retinal ganglion cells (Hoechst 33342 or calcein AM/propidium iodide staining). The format is cell-based, rat. The protocol:
The primary culture of the retinal glia cells was carried out using two-day-old Sprague Dawley (SD) baby rats in accordance with a somewhat modified method (Hayashi et al., J. Biol. Chem. 2009) of the method of Barres et al. (Barres, et al., 1988). The isolated retinal glia cells (RGC) were suspended in a base culture medium of a RGC medium (1 mM glutamine, 5 μg/mL insulin, 60 μg/mL N-acetylcysteine, 62 ng/mL progesterone, 16 μg/mL putrescine, 40 ng/mL sodium selenite, 0.1 mg/mL bovine serum albumin, 40 ng/mL triiodothyronine, 0.1 mg/mL transferrin, 1 mM sodium pyruvate, 2% B27 supplement (Invitrogen, Carlsbad, Calif.), 10 μM forskolin (Sigma, St. Louis, Mo.), 50 ng/mL brain-derived neurotrophic factor (BDNF; PeproTech, Rocky Hill, N.J.), 50 ng/mL ciliary neurotrophic factor (CNTF; Peprotech), and 50 ng/mL basic fibroblast growth factor (bFGF; PeproTech). A 96-well plate was coated with poly-d-lysine (Sigma) and laminin (Sigma), and RGC was placed at the rate of 5,000 cells per well for the 96-well place, 5,000 cells per each culture insert for microdish, or 15,000 cells per dish for compartmentalized culture, followed by incubating for at least 10 days before experimentation.
In the figure, Cant represents a non-treated group, Glu represents a group with 300 μM glutamic acid added, and +glial LP represents a group with 300 μM glutamate+glia-cell-derived lipoprotein containing apolipoprotein E added. Glial LP was added in the concentration of 1 μg cholesterol/mL. After treatment, the rate of apoptosis-like cells was computed by observing the aggregation of the nuclei (a: nuclear staining with Hoechst 33342) or the sustained impermeability of esterase activity/membrane (b: calcein AM/Propidium Iodide staining) in 24 hours.
The induction and detection of apoptosis in RGC were performed in the manner as described below. Specifically, RGC was washed twice with Hanks' balanced salt solution (HBSS) containing 2.4 mM CaCl2 and 20 mM HEPES, but not containing magnesium, and incubated at 37° C. for 2 hours in a medium prepared by adding 300 μM glutamate and 10 μM glycine to the above Hanks' balanced salt solution. After treatment with glutamate, RGC was incubated at 37° C. for 22 hours in a RGC culture medium containing no forskolin, BDNF, CNTF and bFGF. In order to detect apoptosis, RGC was stained with 1 μg/mL of Hoechst 33342 (346-07951, Dojindo, Kumamoto, Japan) or 1 μg/mL of calcein-AM/propidium iodide (341-07381, Dojindo). The fluorescence images were observed by Olympus IX71 microscope. The fragmented or aggregated nuclei stained with the above Hoechst reagent were counted as apoptotic nuclei, and round and smooth nuclei were counted as sound nuclei. As the sound nuclei were not stained with propidium iodide, the nuclei stained with propidium iodide were counted as apoptotic nuclei. More than 300 nuclei were counted in each group.
The apoptosis of RGC was measured in the following manner. The RGC subjected to the primary incubated was incubated two times at 37° C. for 15 minutes using Hanks' Balanced Salt Solution (HBSS) containing 2.4 mM CaCl2 and 20 mM 4-(2-hydroxyethyl)-pyperazine-1-ethanesulfonic acid (HEPES) but containing no magnesium and then washed. […], the magnesium was removed from the washing solution. Thereafter, the RGC was treated or not treated with […] (a co-activating agent for the NMDA receptor) in HBSS containing 2.4 mM CaCl2 and 20 mM HEPES (without magnesium) and then incubated at 37° C. for 2 hours. A control (HBSS containing 2.4 mM CaCl2 and 20 mM HEPES (without containing magnesium)) or the RGC treated or not treated with glutamic acid was incubated at 37° C. for 22 hours in the same medium as used for the RGC (without forskolin, brain-derived neurotrophic factor, ciliary neurotrophic factor and basic fibroblast growth factor). […]

Consider “E-LP: reconstituted lipoprotein of 1-palmitoyl-2-oleyl-glycerophosphocoline, cholesterol and recombinant human apolipoprotein E, molar ratio 100:10:1 or 100:0:1”, for which the “RGC existence in Glast+/− and Glast−/− mice” value in assay [1] (1 μl of 1.5 μg protein/mL E-LP into vitreous body, three-week-old injected, six-week-old examined) was “recovery”. Besides, the “effect on the inhibitory effects of α2-macroglobulin on neuroprotection” value in the assay on retinal ganglion cells (100 nM a2M, E-LP 100-3,000 ng protein/mL, Glu, Hoechst 24 hours) is listed as “inhibited”. For the same substance, the “protection of RGC from Glu-induced neurotoxicity, dose dependence” value in the assay on retinal ganglion cells (RGC incubated with E-LP 15 minutes before Glu) is “protected the RGC in a dose-dependent manner”.

In the case of “LP: reconstituted lipoprotein of POPC, cholesterol and recombinant human apolipoprotein E3”, in assay [1] (LP (100 ng protein/mL) into vitreous body at three weeks, eyeball removed at six weeks), the “apoptosis of the retinal cells of GLAST knockout mouse” value is listed as “inhibited apoptosis”. Moreover, in the assay with retinal ganglion cells (100 ng protein/mL, 15 minutes before Glu), the “difference in neuroprotective effects between apoE isoforms in RGC treated with glutamic acid” value is listed as “no difference”. Besides, the “apoptosis of retinal cells induced by glutamic acid (apoptosis-like cells)” value in the assay with retinal ganglion cells (added at 100 ng protein/mL, Hoechst 33342) was “inhibited the apoptosis”.
